Measured values taken from patent US10597388B2, “Pyridazinone herbicides” (FMC CORPORATION, priority 2014, dated 2020).

Legend:
Experiment in all cases: Test D controlled growth environment herbicide test, pre- and postemergence
Assay type in all cases: in vivo
[1] = test system: field violet (Viola arvensis)
Excerpt: (§1) Seeds of plant species selected from bluegrass (annual bluegrass, Poa annua), blackgrass (Alopecurus myosuroides), Canada thistle (Cirsium arvense), canarygrass (Phalaris minor), chickweed (common chickweed, Stellaria media), geranium, cutleaf (cutleaf geranium, Geranium dissectum), galium (catchweed bedstraw, Galium aparine), bromegrass, downy (downy bromegrass, Bromus tectorum), field poppy (Papaver rhoeas), field violet (Viola arvensis), foxtail, green (green foxtail, Setaria viridis), deadnettle (henbit deadnettle, Lamium amplexicaule), ryegrass, Italian (Italian ryegrass, Lolium multiflorum), kochia (Kochia scoparia), lambsquarters (Chenopodium album), oilseed rape (Brassica napus), pigweed (Amaranthus retroflexus), chamomile (scentless chamomile, Matricaria inodora), Russian thistle (Salsola kali), speedwell (bird's-eye speedwell, Veronica persica), barley, spring (spring barley, Hordeum vulgare), wheat, spring (spring wheat, Triticum aestivum), buckwheat, wild (wild buckwheat, Polygonum convolvulus), mustard, wild (wild mustard, Sinapis arvensis), oat, wild (wild oat, Avena fatua), radish, wild (wild radish, Raphanus raphanistrum), windgrass (Apera spica-venti), barley, winter (winter barley, Hordeum vulgare), and wheat, winter (winter wheat, Triticum aestivum) were planted into a silt loam soil and treated preemergence with test chemicals formulated in a non-phytotoxic solvent mixture which included a surfactant.
(§2) At the same time, these species were planted in pots containing Redi-Earth® planting medium (Scotts Company, 14111 Scottslawn Road, Marysville, Ohio 43041) comprising spaghnum peat moss, vermiculite, wetting agent and starter nutrients and treated with postemergence applications of the test chemicals formulated in the same manner. Plants ranged in height from 2 to 18 cm (1- to 4-leaf stage). Treated plants and controls were maintained in a controlled growth environment for 14 to 21 d after which time all species were compared to controls and visually evaluated. Plant response ratings, summarized in Table D, are based on a scale of 0 to 100 where 0 is no effect and 100 is complete control. A dash (-) response means no test result.

[2] = test system: chamomile (scentless chamomile, Matricaria inodora)
Excerpt: as §1, §2

[3] = test system: barley, spring (spring barley, Hordeum vulgare)
Excerpt: as §1, §2

[4] = test system: field poppy (Papaver rhoeas)
Excerpt: as §1, §2

[5] = test system: radish, wild (wild radish, Raphanus raphanistrum)
Excerpt: as §1, §2

[6] = test system: speedwell (bird's-eye speedwell, Veronica persica)
Excerpt: as §1, §2

[7] = test system: oat, wild (wild oat, Avena fatua)
Excerpt: as §1, §2

[8] = test system: oilseed rape (Brassica napus)
Excerpt: as §1, §2

[9] = test system: wheat, winter (winter wheat, Triticum aestivum)
Excerpt: as §1, §2

[10] = test system: mustard, wild (wild mustard, Sinapis arvensis)
Excerpt: as §1, §2

[11] = test system: deadnettle (henbit deadnettle, Lamium amplexicaule)
Excerpt: as §1, §2

kochia (Kochia scoparia) = test system: kochia (Kochia scoparia)
Excerpt: as §1, §2

[12] = test system: chickweed (common chickweed, Stellaria media)
Excerpt: as §1, §2

[13] = Postemergence, 31 g ai/ha, scale 0 to 100 (0 no effect, 100 complete control)
[14] = Postemergence, 125 g ai/ha, visual rating on scale 0 (no effect) to 100 (complete control), 14 to 21 d
[15] = Postemergence, 250 g ai/ha, scale 0 to 100 (0 no effect, 100 complete control)
[16] = Preemergence, 62 g ai/ha, scale 0 to 100 (0 no effect, 100 complete control)
[17] = Preemergence, 125 g ai/ha, scale 0 to 100 (0 no effect, 100 complete control)
[18] = Preemergence, 250 g ai/ha, scale 0 to 100, 0 no effect, 100 complete control
[19] = postemergence, 62 g ai/ha, scale 0 to 100, 0 no effect, 100 complete control

Cc1nn(C)c(=O)c(-c2cccc3ccccc23)c1O [Compound 11, 5-hydroxy-2,6-dimethyl-4-(1-naphthalenyl)-3(2H)-pyridazinone]
Field Violet plant response rating [1, 13]: 65
Plant response rating, Field Violet [1, 14]: 75
Plant response rating, Field Violet [1, 15]: 90
Plant response rating (scale of 0 to 100), Field Violet ([1]; Preemergence, 31 g ai/ha): 85
Plant response rating, Field Violet [1, 16]: 100
Plant response rating, Field Violet [1, 17]: 100
Plant response rating, Field Violet [1, 18]: 100
Plant response rating, Field Violet [1, 19]: 65
Chamomile plant response rating [2, 13]: 40
Plant response rating, Chamomile [2, 14]: 75
Plant response rating, Chamomile [2, 15]: 90
Plant response rating, Chamomile [2, 19]: 65
Plant response rating, Barley, Spring [3, 13]: 0
Plant response rating, Barley, Spring [3, 14]: 10
Plant response rating, Barley, Spring [3, 15]: 10
Plant response rating (scale of 0 to 100), Barley, Spring ([3]; Preemergence, 31 g ai/ha): 5
Plant response rating, Barley, Spring [3, 16]: 5
Plant response rating, Barley, Spring [3, 17]: 10
Barley, Spring plant response rating [3, 18]: 15
Plant response rating, Barley, Spring [3, 19]: 0
Field Poppy plant response rating [4, 13]: 35
Plant response rating, Field Poppy [4, 14]: 80
Plant response rating, Field Poppy [4, 15]: 100
Plant response rating (scale of 0 to 100), Field Poppy ([4]; Preemergence, 31 g ai/ha): 75
Plant response rating, Field Poppy [4, 16]: 75
Plant response rating, Field Poppy [4, 17]: 100
Plant response rating, Field Poppy [4, 18]: 100
Plant response rating, Field Poppy [4, 19]: 85
Radish, Wild plant response rating [5, 13]: 50
Plant response rating, Radish, Wild [5, 14]: 60
Plant response rating, Radish, Wild [5, 15]: 85
Plant response rating (scale of 0 to 100), Radish, Wild ([5]; Preemergence, 31 g ai/ha): 10
Plant response rating, Radish, Wild [5, 16]: 15
Plant response rating, Radish, Wild [5, 17]: 20
Plant response rating, Radish, Wild [5, 18]: 25
Plant response rating, Radish, Wild [5, 19]: 30
Speedwell plant response rating [6, 13]: 0
Plant response rating, Speedwell [6, 14]: 100
Plant response rating, Speedwell [6, 15]: 100
Plant response rating (scale of 0 to 100), Speedwell ([6]; Preemergence, 31 g ai/ha): 0
Plant response rating, Speedwell [6, 16]: 15
Plant response rating, Speedwell [6, 17]: 85
Plant response rating, Speedwell [6, 18]: 100
Plant response rating, Speedwell [6, 19]: 100
Oat, Wild plant response rating [7, 13]: 40
Plant response rating, Oat, Wild [7, 14]: 85
Plant response rating, Oat, Wild [7, 15]: 98
Plant response rating (scale of 0 to 100), Oat, Wild ([7]; Preemergence, 31 g ai/ha): 15
Plant response rating, Oat, Wild [7, 16]: 70
Plant response rating, Oat, Wild [7, 17]: 80
Plant response rating, Oat, Wild [7, 18]: 85
Plant response rating, Oat, Wild [7, 19]: 75
Oilseed Rape plant response rating [8, 13]: 0
Plant response rating, Oilseed Rape [8, 14]: 20
Plant response rating, Oilseed Rape [8, 15]: 55
Plant response rating (scale of 0 to 100), Oilseed Rape ([8]; Preemergence, 31 g ai/ha): 5
Plant response rating, Oilseed Rape [8, 16]: 0
Plant response rating, Oilseed Rape [8, 17]: 5
Plant response rating, Oilseed Rape [8, 18]: 5
Plant response rating, Oilseed Rape [8, 19]: 15
Wheat, Winter plant response rating [9, 13]: 10
Plant response rating, Wheat, Winter [9, 14]: 15
Plant response rating, Wheat, Winter [9, 15]: 25
Plant response rating (scale of 0 to 100), Wheat, Winter ([9]; Preemergence, 31 g ai/ha): 0
Plant response rating, Wheat, Winter [9, 16]: 0
Plant response rating, Wheat, Winter [9, 17]: 20
Plant response rating, Wheat, Winter [9, 18]: 30
Plant response rating, Wheat, Winter [9, 19]: 15
Mustard, Wild plant response rating [10, 13]: 65
Plant response rating, Mustard, Wild [10, 14]: 75
Plant response rating, Mustard, Wild [10, 15]: 95
Plant response rating (scale of 0 to 100), Mustard, Wild ([10]; Preemergence, 31 g ai/ha): 0
Plant response rating, Mustard, Wild [10, 16]: 20
Plant response rating, Mustard, Wild [10, 17]: 75
Plant response rating, Mustard, Wild [10, 18]: 100
Plant response rating, Mustard, Wild [10, 19]: 70
Deadnettle plant response rating [11, 13]: 75
Plant response rating, Deadnettle [11, 14]: 100
Plant response rating, Deadnettle [11, 15]: 100
Plant response rating (scale of 0 to 100), Deadnettle ([11]; Preemergence, 31 g ai/ha): 10
Plant response rating, Deadnettle [11, 16]: 15
Plant response rating, Deadnettle [11, 17]: 50
Plant response rating, Deadnettle [11, 18]: 100
Plant response rating, Deadnettle [11, 19]: 100
Kochia plant response rating (kochia (Kochia scoparia); [13]): 60
Plant response rating, Kochia (kochia (Kochia scoparia); [14]): 85
Plant response rating, Kochia (kochia (Kochia scoparia); [15]): 100
Plant response rating (scale of 0 to 100), Kochia (kochia (Kochia scoparia); Preemergence, 31 g ai/ha): 10
Plant response rating, Kochia (kochia (Kochia scoparia); [16]): 40
Plant response rating, Kochia (kochia (Kochia scoparia); [17]): 75
Plant response rating, Kochia (kochia (Kochia scoparia); [18]): 95
Plant response rating, Kochia (kochia (Kochia scoparia); [19]): 75
Chickweed plant response rating [12, 13]: 45
Plant response rating, Chickweed [12, 14]: 80
Plant response rating, Chickweed [12, 15]: 100
Plant response rating (scale of 0 to 100), Chickweed ([12]; Preemergence, 31 g ai/ha): 20
Plant response rating, Chickweed [12, 16]: 100
Plant response rating, Chickweed [12, 17]: 100
Plant response rating, Chickweed [12, 18]: 100
Plant response rating, Chickweed [12, 19]: 90
